From ChEMBL document CHEMBL4689842, “EUbOPEN Chemogenomics Library wave 1” (2021)

Assays:
Format in all cases: toxicity, cell-based
[1] = tested on: HEK-293T; test: Incucyte cell viability with HEK293T; details: human, 10 µM, compound concentration 10 uM
[2] = tested on: Fibroblast; test: Incucyte cell viability with human fibroblast; details: 10 µM, compound concentration 10 uM
[3] = tested on: U2OS; test: Incucyte cell viability with U2OS; details: human, 10 µM, compound concentration 10 uM
[4] = 0 h, replicate number 1, timepoint 0 hours
[5] = 6 h, replicate number 2, timepoint 6 hours
[6] = 12 h, replicate number 2, timepoint 12 hours
[7] = 18 h, replicate number 1, timepoint 18 hours
[8] = 24 h, replicate number 1, timepoint 24 hours
[9] = 24 h, replicate number 2, timepoint 24 hours
[10] = 6 h, replicate number 1, timepoint 6 hours
[11] = 12 h, replicate number 1, timepoint 12 hours
[12] = 0 h, replicate number 2, timepoint 0 hours
[13] = 18 h, replicate number 2, timepoint 18 hours
Further: filed as whole numbers so only -1 and 0 and 1 occur.

CO[C@H]1CC[C@H](CNc2ccc(S(=O)(=O)NC(=O)c3ccc(N4CCN(CC5=C(c6ccc(Cl)cc6)CC(C)(C)CC5)CC4)cc3Oc3cnc4[nH]ccc4c3)cc2[N+](=O)[O-])CC1 [A-1211212]
Growth Rate [1, 4]: 0 | Growth Rate [1, 5]: 1 | Growth Rate [1, 6]: 1 | Growth Rate [1, 7]: 1 | Growth Rate [1, 8]: 1 | Growth Rate [1, 9]: 0 | Growth Rate [2, 4]: 0 | Growth Rate [2, 10]: 0 | Growth Rate [2, 11]: 0 | Growth Rate [2, 7]: 0 | Growth Rate [2, 8]: 0 | Growth Rate [3, 4]: 0 | Growth Rate [3, 10]: 1 | Growth Rate [3, 11]: 0 | Growth Rate [3, 6]: 1 | Growth Rate [3, 7]: 0 | Growth Rate [3, 8]: 0 | Growth Rate [3, 9]: 1

C[C@]12CCC(=O)C=C1CC[C@@H]1[C@@H]2[C@@H](O)C[C@]2(C=O)[C@@H](C(=O)CO)CC[C@@H]12 [ALDOSTERONE]
Growth Rate [1, 4]: 0 | Growth Rate [1, 5]: 1 | Growth Rate [1, 11]: 1 | Growth Rate [1, 6]: 0 | Growth Rate [1, 7]: 1 | Growth Rate [1, 8]: 1 | Growth Rate [2, 4]: 0 | Growth Rate [2, 12]: 1 | Growth Rate [2, 10]: 0 | Growth Rate [2, 11]: 1 | Growth Rate [2, 6]: 0 | Growth Rate [2, 7]: 1 | Growth Rate [2, 13]: 0 | Growth Rate [2, 8]: 1 | Growth Rate [3, 4]: 0 | Growth Rate [3, 5]: 1 | Growth Rate [3, 11]: 1 | Growth Rate [3, 7]: 1 | Growth Rate [3, 8]: 1

Cc1nc(NC(=O)N2CCC[C@H]2C(N)=O)sc1-c1ccnc(C(C)(C)C(F)(F)F)c1 [ALPELISIB]
Growth Rate [1, 10]: 0 | Growth Rate [1, 6]: 0 | Growth Rate [1, 7]: 1 | Growth Rate [1, 8]: 1 | Growth Rate [2, 4]: 1 | Growth Rate [2, 12]: 0 | Growth Rate [2, 5]: 1 | Growth Rate [2, 11]: 1 | Growth Rate [2, 6]: 0 | Growth Rate [2, 7]: 1 | Growth Rate [2, 13]: 0 | Growth Rate [2, 8]: 1 | Growth Rate [2, 9]: 0 | Growth Rate [3, 4]: 1 | Growth Rate [3, 12]: 0 | Growth Rate [3, 10]: 1 | Growth Rate [3, 11]: 1 | Growth Rate [3, 7]: 0 | Growth Rate [3, 13]: 1 | Growth Rate [3, 8]: 0 | Growth Rate [3, 9]: 1

CC(C)C[C@H](CO)Nc1nc(S[C@@H](C)c2ccccc2)nc2nc(N)sc12 [AZD-8797]
Growth Rate [1, 4]: 1 | Growth Rate [1, 12]: 0 | Growth Rate [1, 10]: 0 | Growth Rate [1, 5]: 1 | Growth Rate [1, 11]: 0 | Growth Rate [1, 6]: 1 | Growth Rate [1, 7]: 0 | Growth Rate [1, 8]: 0 | Growth Rate [2, 4]: 1 | Growth Rate [2, 12]: 0 | Growth Rate [2, 10]: 0 | Growth Rate [2, 11]: 0 | Growth Rate [2, 6]: 1 | Growth Rate [2, 7]: 0 | Growth Rate [2, 13]: 1 | Growth Rate [2, 8]: 0 | Growth Rate [2, 9]: 1 | Growth Rate [3, 10]: 0 | Growth Rate [3, 11]: 0 | Growth Rate [3, 7]: 0 | Growth Rate [3, 8]: 0

Cc1c(NC(=O)c2cc(C(N)=O)nc3cc(F)ccc23)c(C(F)(F)F)nn1Cc1ccc(C(C)(C)C)cc1 [BAY-588]
Growth Rate [1, 4]: 0 | Growth Rate [1, 10]: 0 | Growth Rate [1, 11]: 0 | Growth Rate [1, 7]: 0 | Growth Rate [1, 8]: 0 | Growth Rate [2, 4]: 0 | Growth Rate [2, 10]: 0 | Growth Rate [2, 11]: 0 | Growth Rate [2, 7]: 0 | Growth Rate [2, 8]: 0 | Growth Rate [3, 12]: 0 | Growth Rate [3, 11]: 1 | Growth Rate [3, 7]: 0 | Growth Rate [3, 13]: 1 | Growth Rate [3, 8]: 1

CC(=O)C1=C(C)N(c2cccc(C(F)(F)F)c2)C(=O)N[C@@H]1c1ccc(C#N)nc1 [BAY-678]
Growth Rate [1, 4]: 0 | Growth Rate [1, 12]: 1 | Growth Rate [1, 7]: 1 | Growth Rate [1, 8]: 1 | Growth Rate [2, 4]: 1 | Growth Rate [2, 12]: 0 | Growth Rate [2, 10]: 1 | Growth Rate [2, 5]: 0 | Growth Rate [2, 11]: 0 | Growth Rate [2, 7]: 0 | Growth Rate [2, 8]: 0 | Growth Rate [3, 4]: 0 | Growth Rate [3, 10]: 0 | Growth Rate [3, 11]: 0 | Growth Rate [3, 6]: 1 | Growth Rate [3, 7]: 0 | Growth Rate [3, 8]: 0

Cc1c(NC(=O)c2cc(C(N)=O)nc3cc(F)ccc23)c(C(F)(F)F)nn1Cc1ccc(C#N)cc1 [BAY-876]
Growth Rate [1, 12]: 0 | Growth Rate [1, 10]: 0 | Growth Rate [1, 11]: 0 | Growth Rate [1, 7]: 0 | Growth Rate [1, 8]: 0 | Growth Rate [2, 4]: 0 | Growth Rate [2, 10]: 0 | Growth Rate [2, 11]: 0 | Growth Rate [2, 7]: 0 | Growth Rate [2, 8]: 0 | Growth Rate [3, 4]: 1 | Growth Rate [3, 12]: 0 | Growth Rate [3, 10]: 1 | Growth Rate [3, 5]: 0 | Growth Rate [3, 11]: 0 | Growth Rate [3, 7]: 0 | Growth Rate [3, 8]: 0
